Patent US7598382B2, “Aryl substituted imidazoquinolines” (Coley Pharmaceutical Group, Inc., priority 2002, dated 2009)

Columns and labels:
[1] = tested on: tumor necrosis factor-α (TNF-α) production in mouse macrophage cell line Raw 264.7; test: TNF-α inhibition in mouse cells, single concentration assay (LPS-stimulated Raw 264.7); assay type: cell-based; conditions: Raw 264.7 cells stimulated by LPS (EC70), compound 5 μM (single concentration) or 0.03-10 μM (dose response), 18 to 24 hours, ELISA
Description: The compounds of Formulas I and II are useful as immune response modifiers (IRMs) due to their ability to modulate cytokine biosynthesis (e.g., induce or inhibit the biosynthesis or production of one or more cytokines) and otherwise modulate the immune response when administered to animals. Compounds can be tested per the test procedures described in the Examples Section. Compounds can be tested for induction of cytokine biosynthesis by incubating human PBMC in a culture with the compound(s) at a concentration range of 30 to 0.014 μM and analyzing for interferon (α) or tumor necrosis factor (α) in the culture supernatant. Compounds can be tested for inhibition of cytokine biosynthesis by incubating mouse macrophage cell line Raw 264.7 in a culture with the compound(s) at a single concentration of, for example, 5 μM and analyzing for tumor necrosis factor (α) in the culture supernatant. Compounds can be further tested for dose response by running the test at several compound concentrations, for example, 0.03, 0.1, 0.3, 1, 3, 5, and 10 μM. The ability to modulate cytokine biosynthesis makes the compounds useful in the treatment of a variety of conditions such as viral diseases, neoplastic diseases, and autoimmune diseases that are responsive to such changes in the immune response.
The mouse macrophage cell line Raw 264.7 is used to assess the ability of compounds to inhibit tumor necrosis factor-α (TNF-α) production upon stimulation by lipopolysaccharide (LPS).
Raw cells (ATCC) are harvested by gentle scraping and then counted. The cell suspension is brought to 3×10^5 cells/mL in RPMI with 10% fetal bovine serum (FBS). […]
The compounds are solubilized in dimethyl sulfoxide (DMSO). […] LPS (Lipopolysaccaride from Salmonella typhimurium, Sigma-Aldrich) is diluted with colorless RPMI to the EC70 concentration as measured by a dose response assay. […]
Following the incubation the supernatant is removed with a pipet. TNF-α concentration is determined by ELISA using a mouse TNF-α kit (from Biosource International, Camarillo, Calif.). […]

Row | melting point [°C] | SMILES | modulate cytokine biosynthesis by inhibiting production of tumor necrosis factor α (TNF-α) [1]
1 | 244 to 246 | CC(C)Cn1cnc2c(N)nc3ccc(-c4cccnc4)cc3c21 [Example 14, 1-Isobutyl-8-(pyridin-3-yl)-1H-imidazo[4,5-c]quinolin-4-amine] | inhibiting production of tumor necrosis factor α (TNF-α)
2 | 203 to 204 | CC(C)Cn1cnc2c(N)nc3ccc(-c4ccccc4)cc3c21 [Example 15, 1-Isobutyl-8-phenyl-1H-imidazo[4,5-c]quinolin-4-amine] | inhibiting production of tumor necrosis factor α (TNF-α)
3 | 227.5 to 231.5 | CC(C)Cn1cnc2c(N)nc3ccc(-n4cccc4)cc3c21 [Example 481, 1-(2-Methylpropyl)-8-(1-pyrrolyl)-1H-imidazo[4,5-c]quinolin-4-amine] | inhibiting production of tumor necrosis factor α (TNF-α)
4 | 157 to 158 | CCOCc1nc2c(N)nc3cc(-c4cccnc4)ccc3c2n1C[C@H]1COC(C)(C)O1 [Example 489, (S)-1-[(2,2-Dimethyl-1,3-dioxolan-4-yl)methyl]-2-ethoxymethyl-7-(pyridin-3-yl)-1H-imidazo[4,5-c]quinolin-4-amine] | –
5 | 203 to 204 | CCOCc1nc2c(N)nc3cc(-c4cccnc4)ccc3c2n1C[C@H](O)CO [Example 490, (S)-3-[4-Amino-2-ethoxymethyl-7-(pyridin-3-yl)-1H-imidazo[4,5-c]quinolin-1-yl]propane-1,2-diol] | –
6 | 152 to 154 | CCOCc1nc2c(N)nc3cc(-c4cccnc4)ccc3c2n1CC1CCCCN1S(C)(=O)=O (centres unmarked) [Example 492, 2-Ethoxymethyl-1-{[1-(methanesulfonyl)piperidin-2-yl]methyl}-7-(pyridin-3-yl)-1H-imidazo[4,5-c]quinolin-4-amine] | –
7 | 228 to 229 | CCOCc1nc2c(N)nc3cc(-c4cccnc4)ccc3c2n1Cc1ccc(CNS(C)(=O)=O)cc1 [Example 493, N-{4-[4-Amino-2-ethoxymethyl-7-(pyridin-3-yl)-1H-imidazo[4,5-c]quinolin-1-ylmethyl]benzyl}methanesulfonamide] | –
8 | 157 to 161 | CCOCc1nc2c(N)nc3cc(-c4cccnc4)ccc3c2n1CCCCNC(=O)c1ccc(C(OCCN(C)C)c2ccccc2)cc1 (centres unmarked) [Example 494, N-[4-(4-Amino-2-ethoxymethyl-7-(pyridin-3-yl)imidazo[4,5-c]quinolin-1-yl)butyl]-4-[(2-dimethylaminoethoxy)phenylmethyl]benzamide] | –
